ChEMBL document CHEMBL4152365, “Discovery of DS-6930, a potent selective PPARγ modulator. Part I: Lead identification” (Bioorg Med Chem, 2018)
Converted amounts (≈) assume the structure as drawn. The source made the active and inactive calls. No cut-off for these calls is given here.

How the values were obtained:
[1] = Oral bioavailability in cynomolgus monkey at 3 mg/kg by LC-MS/MS analysis; type: ADME, organism-based, Macaca fascicularis; settings: in vivo
[2] = target: T1, Peroxisome proliferator-activated receptor alpha (Homo sapiens) (UniProt Q07869); assay: Agonist activity at recombinant human GAL4-DBD fused PPARalpha LBD expressed in COS7 cells at 10 uM after 24 hrs by luciferase reporter gene assay relative to 2-(4-tert-Butylphenoxy)-3-[4-[2-[(4-pyridin-2-ylbenzoyl)amino]ethoxy]; type: cell-based
T1 sequence (whole entry): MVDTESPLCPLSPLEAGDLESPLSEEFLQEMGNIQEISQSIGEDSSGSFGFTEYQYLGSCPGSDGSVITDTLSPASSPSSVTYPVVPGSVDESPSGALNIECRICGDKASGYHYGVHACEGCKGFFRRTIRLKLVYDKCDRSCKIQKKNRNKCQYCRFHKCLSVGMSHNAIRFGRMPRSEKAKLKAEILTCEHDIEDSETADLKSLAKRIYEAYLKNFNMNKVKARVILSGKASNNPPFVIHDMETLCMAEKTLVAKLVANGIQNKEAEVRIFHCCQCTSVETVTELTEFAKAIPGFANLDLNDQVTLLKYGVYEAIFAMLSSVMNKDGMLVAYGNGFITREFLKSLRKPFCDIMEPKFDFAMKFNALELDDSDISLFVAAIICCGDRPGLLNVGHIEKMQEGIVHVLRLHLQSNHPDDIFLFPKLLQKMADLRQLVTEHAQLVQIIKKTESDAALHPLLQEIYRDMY

Rattus norvegicus [3] = assay: Glucose-lowering effect in Zucker diabetic fatty rat assessed as reduction in plasma glucose level at 3 mg/kg, po administered once daily for 14 days measured on day 14 post last dose relative to control; type: functional; parameters: scale not given: the % may be the effect or the level left
[4] = Tmax in Zucker diabetic fatty rat at 3 mg/kg, po dosed once daily for 14 days and followed by additional administeration on day 15; type: ADME, organism-based; settings: in vivo
[5] = Plasma concentration in hyperglycemic KK/Ta mouse at 30 mg/kg/day, po administered through diet for 3 days measured on day 3 post last dose; type: ADME, organism-based
[6] = Metabolic stability in rat liver microsomes after 0.5 hrs; type: ADME, microsome; settings: read-out: Stability
[7] = Volume of distribution at steady state in cynomolgus monkey at 1 mg/kg, iv by LC-MS/MS analysis; type: ADME, organism-based, Macaca fascicularis; settings: in vivo, read-out: Vdss
[8] = Cmax in cynomolgus monkey at 3 mg/kg, po by LC-MS/MS analysis; type: ADME, organism-based, Macaca fascicularis; parameters: dose 3 mg/kg, route oral; settings: in vivo
[9] = Metabolic stability in human liver microsomes after 0.5 hrs; type: ADME, microsome; settings: read-out: Stability
[10] = target: T2, Peroxisome proliferator-activated receptor gamma (Homo sapiens, UniProt P37231); assay: Agonist activity at recombinant human GAL4-DBD fused PPARgamma LBD expressed in COS7 cells after 24 hrs by luciferase reporter gene assay; type: cell-based
T2 sequence (P37231 whole entry): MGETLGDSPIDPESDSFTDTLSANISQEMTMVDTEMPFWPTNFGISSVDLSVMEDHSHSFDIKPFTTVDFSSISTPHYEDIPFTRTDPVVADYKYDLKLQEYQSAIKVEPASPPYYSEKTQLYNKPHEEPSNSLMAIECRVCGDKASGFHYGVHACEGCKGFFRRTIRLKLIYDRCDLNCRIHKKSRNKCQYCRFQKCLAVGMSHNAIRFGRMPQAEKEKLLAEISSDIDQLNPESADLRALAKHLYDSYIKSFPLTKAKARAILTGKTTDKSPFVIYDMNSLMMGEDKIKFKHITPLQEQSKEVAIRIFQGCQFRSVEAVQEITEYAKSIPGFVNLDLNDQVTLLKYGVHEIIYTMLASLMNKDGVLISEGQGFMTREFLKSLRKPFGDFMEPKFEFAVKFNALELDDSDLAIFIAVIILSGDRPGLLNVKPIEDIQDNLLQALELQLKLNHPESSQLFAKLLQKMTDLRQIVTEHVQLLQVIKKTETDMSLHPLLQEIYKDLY

Rattus norvegicus [11] = assay: Toxicity in Zucker diabetic fatty rat assessed as body weight gain at 3 mg/kg, po administered once daily for 14 days relative to control; type: organism-based; settings: in vivo, 336 h
[12] = Cmax in Zucker diabetic fatty rat at 3 mg/kg, po dosed once daily for 14 days and followed by additional administeration on day 15; type: ADME, organism-based; parameters: dose 3 mg/kg, route oral; settings: in vivo
[13] = Aqueous thermodynamic solubility of the compound in pH 6.8 solution up to 4 hrs by HPLC-UV analysis; type: physicochemical; settings: read-out: Therm_solubility
[14] = AUC (0 to 24 hrs) in Zucker diabetic fatty rat at 3 mg/kg, po dosed once daily for 14 days and followed by additional administeration on day 15; type: ADME, organism-based; parameters: dose 3 mg/kg, time < 24 hr, route oral; settings: in vivo
[15] = Tmax in cynomolgus monkey at 3 mg/kg, po by LC-MS/MS analysis; type: ADME, organism-based, Macaca fascicularis; settings: in vivo
[16] = Clearance in cynomolgus monkey at 1 mg/kg, iv by LC-MS/MS analysis; type: ADME, organism-based, Macaca fascicularis; settings: in vivo
[17] = target: T3, Peroxisome proliferator-activated receptor gamma (Homo sapiens) (UniProt P37231); assay: Agonist activity at recombinant human GAL4-DBD fused PPARgamma LBD expressed in COS7 cells at 10 uM after 24 hrs by luciferase reporter gene assay relative to rosiglitazone; type: cell-based
T3 sequence (whole entry): T2 sequence (P37231 whole entry)

[18] = 1-octanol/PBS distribution co-efficient, log D of the compound at […] at pH 7.4 after 30 mins by HPLC-MS/MS analysis; type: physicochemical
[19] = target: T4, Peroxisome proliferator-activated receptor alpha (Homo sapiens, UniProt Q07869); assay: Agonist activity at recombinant human GAL4-DBD fused PPARalpha LBD expressed in COS7 cells after 24 hrs by luciferase reporter gene assay; type: cell-based
T4 sequence (Q07869 whole entry): T1 sequence (whole entry)

Mus musculus [20] = assay: Toxicity in hyperglycemic KK/Ta mouse assessed as body weight gain at 30 mg/kg/day, po administered through diet for 3 days relative to control; type: organism-based; settings: in vivo, 72 h
[21] = Half life in cynomolgus monkey at 3 mg/kg, po by LC-MS/MS analysis; type: ADME, organism-based, Macaca fascicularis; settings: in vivo
Mus musculus [22] = assay: Glucose-lowering effect in hyperglycemic KK/Ta mouse assessed as reduction in plasma glucose level at 30 mg/kg/day, po administered through diet for 3 days relative to control; type: functional; parameters: scale not given: the % may be the effect or the level left
[23] = Metabolic stability in cynomolgus monkey liver microsomes after 0.5 hrs; type: ADME, Macaca fascicularis, microsome; settings: read-out: Stability
[24] = AUClast in cynomolgus monkey at 3 mg/kg, po by LC-MS/MS analysis; type: ADME, organism-based, Macaca fascicularis; parameters: dose 3 mg/kg, route oral, time 0 - last; settings: in vivo
[25] = target: T5, Peroxisome proliferator-activated receptor delta (Homo sapiens) (UniProt Q03181); assay: Agonist activity at PPARdelta (unknown origin) at 10 uM
T5 sequence (whole entry): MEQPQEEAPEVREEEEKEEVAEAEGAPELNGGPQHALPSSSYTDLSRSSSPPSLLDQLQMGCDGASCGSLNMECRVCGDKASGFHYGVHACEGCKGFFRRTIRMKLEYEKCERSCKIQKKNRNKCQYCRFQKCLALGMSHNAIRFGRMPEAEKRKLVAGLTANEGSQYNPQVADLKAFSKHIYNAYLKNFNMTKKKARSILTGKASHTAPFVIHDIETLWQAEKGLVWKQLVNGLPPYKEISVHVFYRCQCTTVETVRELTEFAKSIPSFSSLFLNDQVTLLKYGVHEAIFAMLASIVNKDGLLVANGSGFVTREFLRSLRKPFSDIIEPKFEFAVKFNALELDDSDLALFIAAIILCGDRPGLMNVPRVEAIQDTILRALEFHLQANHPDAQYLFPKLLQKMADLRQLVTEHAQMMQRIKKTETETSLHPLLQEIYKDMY

| SMILES | bioavailability [1] | Emax [2] | Activity (Rattus norvegicus [3]) | Tmax [4] | concentration at 72 h [5] | remaining at 0.5 h [6] | Vd [7] | Cmax [8] | remaining at 0.5 h [9] | EC50 [10] | Activity (Rattus norvegicus [11]) | Cmax [12] | solubility thermodynamic at 4 h [13] | AUC at 24 h [14] | Tmax [15] | Emax [17] | logD at 0.5 h [18] | EC50 [19] | Activity (Mus musculus [20]) | Activity (Mus musculus [22]) | also measured |
| --- | --- | --- | --- | --- | --- | --- | --- | --- | --- | --- | --- | --- | --- | --- | --- | --- | --- | --- | --- | --- | --- |
| Cn1c(COc2cccc(C(=O)O)c2)nc2ccc(Oc3cc(F)ccc3F)cc21 | 65% | 36% | 61.2% | 2 h | 700 ng/mL | 95% | 0.39 L/kg | 5630 ng/mL | 98% | 134 nM | 9.5% | 520 ng/mL | 5.7 µg/mL (≈ 13.9 µM) | 3870 ng·h/mL | 1 h | 79% | 1.9 | > 10000 nM | 3.3% | 51.2% | clearance [16]: 0.8 mL/min/kg; half-life [21]: 16.1 h; remaining at 0.5 h [23]: 100%; AUC(0-t) [24]: 40900 ng·h/mL |
| Cc1ccc(Oc2ccc3nc(COc4cccc(C(=O)O)c4)n(C)c3c2)cc1F | 28% | 40% | 59.3% | 2 h | 470 ng/mL | 100% | 0.32 L/kg | 2060 ng/mL | 91% | 4.4 nM | 13.8% | 790 ng/mL | 4.4 µg/mL (≈ 10.8 µM) | 5530 ng·h/mL | 1.5 h | 80% | 2.7 | > 10000 nM | 4.2% | 56.8% | clearance [16]: 1.8 mL/min/kg; half-life [21]: 13.8 h; remaining at 0.5 h [23]: 91%; AUC(0-t) [24]: 8440 ng·h/mL |
| Cc1cc(F)ccc1Oc1ccc2nc(COc3cccc(C(=O)O)c3)n(C)c2c1 | – | 19% | 22% | 4 h | 190 ng/mL | 47% | – | – | 59% | 22 nM | 11.9% | 42 ng/mL | 1.7 µg/mL (≈ 4.18 µM) | 420 ng·h/mL | – | 66% | 2.5 | > 10000 nM | 2.8% | 54.7% | – |
| Cc1ccc(Oc2ccc3nc(COc4cccc(C(=O)O)c4)n(C)c3c2)c(F)c1 | 24% | 16% | 61.7% | 2.4 h | 550 ng/mL | 98% | 1.23 L/kg | 330 ng/mL | 92% | 92 nM | 8.5% | 300 ng/mL | 0.5 µg/mL (≈ 1.23 µM) | 3160 ng·h/mL | 1.5 h | 90% | 2.3 | > 10000 nM | 2.5% | 53.4% | clearance [16]: 4.16 mL/min/kg; half-life [21]: 16.1 h; remaining at 0.5 h [23]: 100%; AUC(0-t) [24]: 2870 ng·h/mL |
| Cn1c(COc2cccc(C(=O)O)c2)nc2ccc(Oc3ccc4c(c3)OCC4)cc21 | – | 12% | 69.7% | 3.2 h | 360 ng/mL | 79% | – | – | 62% | 21 nM | 15.6% | 80 ng/mL | 16 µg/mL (≈ 38.4 µM) | 850 ng·h/mL | – | 95% | 2 | > 10000 nM | 4.8% | 41.6% | – |
| Cc1ccc(Oc2ccc3nc(COc4cccc(C(=O)O)c4)n(C)c3c2)cc1 | 34% | 28% | 58.6% | 2 h | 510 ng/mL | 100% | 0.56 L/kg | 1020 ng/mL | 91% | 40 nM | 13% | 1110 ng/mL | 7.9 µg/mL (≈ 20.3 µM) | 7100 ng·h/mL | 1 h | 73% | 2.4 | > 10000 nM | 4.8% | 48.4% | clearance [16]: 3.58 mL/min/kg; half-life [21]: 10.4 h; remaining at 0.5 h [23]: 100%; Activity [25]: inactive; AUC(0-t) [24]: 4870 ng·h/mL |
